{
  "source": "paper PMC8152690",
  "about": "“Biosynthetic access to the rare antiarose sugar via an unusual reductase-epimerase” (Chemical Science, 2020)",
  "key": {"RblE": {"system": "T1, RblE", "T1 construct": "rubterolone gene cluster", "assay": "spectrophotometric assay, decrease of NADPH absorbance", "type": "biochemical"}, "RubS5": {"target": "T2, RubS5 (Streptomyces sp. KIB-H033, UniProt A0A1I9S3Q5)", "T2 construct": "expressed and purified; rubrolone gene cluster", "T2 sequence (A0A1I9S3Q5 1-289)": "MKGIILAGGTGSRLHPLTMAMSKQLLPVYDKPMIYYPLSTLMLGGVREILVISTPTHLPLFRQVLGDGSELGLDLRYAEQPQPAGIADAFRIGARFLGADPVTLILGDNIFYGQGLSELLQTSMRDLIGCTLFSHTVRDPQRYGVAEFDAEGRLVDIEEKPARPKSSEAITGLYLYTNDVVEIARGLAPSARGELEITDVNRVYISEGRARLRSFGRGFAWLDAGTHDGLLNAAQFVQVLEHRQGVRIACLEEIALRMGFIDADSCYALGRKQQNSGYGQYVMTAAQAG", "assay": "HPLC and 1H-NMR of product", "type": "biochemical", "conditions": "sugar phosphate co-substrate (D-glucose-1-phosphate in text, D-glucose-6-phosphate in Fig. 2 legend)"}},
  "data": [
    {"smiles": "Cc1cn([C@H]2C[C@H](O)[C@@H](COP(=O)(O)OP(=O)(O)O[C@H]3O[C@H](C)C(=O)[C@H](O)[C@H]3O)O2)c(=O)[nH]c1=O", "note": "[compound 1, TDP-4-keto-6-deoxy-D-glucose]", "values": [
      {"measurement": "Km", "setting": "RblE", "value": 35, "unit": "µM"}
    ]},
    {"smiles": "Cc1cn([C@H]2C[C@H](O)[C@@H](COP(=O)(O)OP(=O)(O)OP(=O)(O)O)O2)c(=O)[nH]c1=O", "note": "[TTP]", "values": [
      {"measurement": "HPLC and 1H-NMR of product", "setting": "RubS5", "value": "buffer with TTP and D-glucose-6-phosphate. (b) RubS5 reaction"}
    ]}
  ]
}
